One assay relates to L1210. As to the kind of experiment: In vivo cytotoxicity against mouse L1210 cells at 300 to 400 mg/kg relative to control. Type of assay: functional, organism-based.
The test system of the next assay is P388. As to the kind of experiment: Cytotoxicity against mouse P388 cells. The settings on record: read-out: ED50 (the source's name). The class given is functional.
The subject of the next assay is KB. As to the kind of experiment: Cytotoxicity against human KB cells. Type of assay: functional. Conditions: read-out: ED50 (the source's name).

Structures are written as SMILES. Values after ≈ are worked out from the molar mass of the structure shown. Active and inactive are the calls of the source. The calls are words filed in the database; no cut-off is given here.

For the compound `Cc1cccc2c1C(=O)C1[C@H]3CCCN3CC[C@H]1O2` (some centres undefined), in the assay with L1210, the outcome was inactive. On the same count and under the same terms, under `C[C@@H]1CC=CC2=C1C(=O)[C@H]1[C@H](CCN3CCC[C@H]13)O2` stands “inactive”.

Regarding `CC(C)(O)CCC(=O)[C@](C)(O)[C@H]1[C@H](O)C[C@@]2(C)[C@@H]3CC=C4[C@@H](C[C@H](O)[C@@H](O)C4(C)C)[C@]3(C)C(=O)C[C@]12C`, the EC50 in the assay on P388 and in the assay on KB was over 50 µg/mL in each case.

In the case of `Cc1cccc2c1C(=O)[C@H]1[C@H](CCN3CCC[C@H]13)O2`, the outcome in the assay with L1210 was inactive.

On to `CC(C)(O)/C=C/C(=O)[C@](C)(O)[C@H]1[C@H](O)C[C@@]2(C)[C@@H]3CC=C4[C@@H](C[C@H](O)[C@@H](O)C4(C)C)[C@]3(C)C(=O)C[C@]12C` [CUCURBITACIN F], for which the EC50 with P388 is 0.04 µg/mL (≈ 0.0771 µM); in the assay with KB, 0.074 µg/mL (≈ 0.143 µM).

For `CC(=O)[C@H]1[C@H](O)C[C@@]2(C)[C@@H]3CC=C4[C@@H](C[C@H](O)[C@@H](O)C4(C)C)[C@]3(C)C(=O)C[C@]12C` [HEXANORCUCURBITACIN F], the EC50 with P388 and in the assay with KB was over 50 µg/mL throughout.

The values above are taken from ChEMBL document CHEMBL1151631, “Plant anticancer agents, XXXIV. Cucurbitacins from Elaeocarpus dolichostylus” (1984).
